We go through seven compounds from ChEMBL document CHEMBL1201862, “PubChem BioAssay data set” (2004).

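Where inhibition never reached the appropriate level, the endpoint shown equals the highest concentration tested. Otherwise, values were interpolated linearly from a five-concentration, 48-hour dose response in 96-well plates. The concentration for 50% growth inhibition is given as GI50.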 Active and inactive are the calls of the source. Cut-off read from the data, not from the text of the source: active = GI50 up to about 1.1 µM and inactive = higher. Where only a bound is given, the exact number is not on record here.

Some test systems named below: CCRF-CEM; HCT-116; HCT-15; HOP-62; HOP-92; LXFL 529; Malme-3M; NCI-H23; NCI-H522; OVCAR-3; OVCAR-4; RXF 393; SK-MEL-2; SK-MEL-5; SNB-75; SR; SW-620; TK-10; U-251; NCI/ADR-RES.
Common to all, as to assay: growth of human tumour cells (NCI), 48 h

With `COc1ccc(-c2c(C3=NCCCN3)nnn2-c2ccccc2)cc1`, the GI50 in the assay with CCRF-CEM was > 100 µM (inactive); with HCT-116 it was > 100 µM (inactive); in the assay on HCT-15, > 100 µM; in the assay on HOP-62, > 100 µM (inactive); with HOP-92, 86.5 µM (inactive); in the assay on LXFL 529, > 100 µM (inactive). The GI50 in the assay with Malme-3M, in the assay with NCI-H23, with NCI-H522, in the assay on OVCAR-3, with OVCAR-4 and with RXF 393 was > 100 µM (inactive) in each case. In addition, the GI50 is > 100 µM (inactive) with SK-MEL-2; > 100 µM (inactive) with SK-MEL-5; 47.4 µM (inactive) in the assay on SNB-75; > 100 µM (inactive) in the assay on SR; > 100 µM (inactive) in the assay on SW-620; > 100 µM (inactive) in the assay on TK-10. Moreover, in the assay on U-251, the GI50 is > 100 µM (inactive).
As for `C[Si](C)(C)/C=C/CN1C(=O)CCC1O` (configuration not stated), the GI50 was > 100 µM (inactive) with CCRF-CEM; > 100 µM (inactive) in the assay on HCT-116; > 100 µM with HCT-15; > 100 µM (inactive) in the assay on HOP-62; > 100 µM (inactive) with HOP-92; > 100 µM (inactive) in the assay on LXFL 529. The GI50 with Malme-3M, in the assay on NCI-H23, in the assay with NCI-H522, with OVCAR-3, in the assay with OVCAR-4 and with RXF 393 was > 100 µM (inactive) throughout. Further, the GI50 in the assay with SK-MEL-2, with SK-MEL-5, in the assay with SNB-75, with SR, in the assay on SW-620 and with TK-10 was > 100 µM (inactive) in each case. The GI50 in the assay with U-251 is > 100 µM (inactive).
`Nn1c(S)nnc1N/N=C1/C(=O)Nc2c(Cl)cc(Cl)cc21`: the GI50 with CCRF-CEM was 37.1 µM (inactive); with HCT-116, > 100 µM (inactive); in the assay on HCT-15, > 100 µM; with HOP-62 it was 50.4 µM (inactive); in the assay on HOP-92 it was 73.1 µM (inactive); in the assay with LXFL 529 it was 59.7 µM (inactive). Moreover, the GI50 in the assay with Malme-3M is > 100 µM (inactive); in the assay with NCI-H23 it was > 100 µM (inactive); with NCI-H522, 95.1 µM (inactive); in the assay on OVCAR-3 it was > 100 µM (inactive); with OVCAR-4, > 100 µM (inactive); in the assay on RXF 393, 17.9 µM (inactive). In addition, the GI50 was > 100 µM (inactive) with SK-MEL-2; > 100 µM (inactive) in the assay with SK-MEL-5; 38.3 µM (inactive) in the assay with SR; > 100 µM (inactive) with SW-620; > 100 µM (inactive) with TK-10; > 100 µM (inactive) in the assay with U-251.
As for `O=c1[nH]c(=O)n(C2CC(O)C(CS)O2)cc1F` (configuration not stated), the GI50 in the assay on CCRF-CEM was 30.5 µM (inactive); in the assay with HCT-116, 56.6 µM (inactive); in the assay on HCT-15 it was 74.5 µM; in the assay with HOP-62 it was 37.2 µM (inactive); in the assay on HOP-92, 9.79 µM (inactive); in the assay with LXFL 529 it was > 10 µM (inactive). Moreover, the GI50 in the assay with Malme-3M is 64.7 µM (inactive); with NCI-H23, > 94.4 µM (inactive); in the assay on NCI-H522, > 87.1 µM (inactive); in the assay with NCI/ADR-RES, 5.4 µM (inactive); in the assay with OVCAR-3, > 92.3 µM (inactive); in the assay on OVCAR-4, > 92.7 µM (inactive). The GI50 with RXF 393 is > 100 µM (inactive); in the assay on SK-MEL-2 it was > 100 µM (inactive); in the assay on SK-MEL-5, 70.1 µM (inactive); in the assay on SNB-75, 55.6 µM (inactive); in the assay on SR, 56.6 µM (inactive); in the assay on SW-620 it was > 86.1 µM (inactive). Besides, the GI50 in the assay on TK-10 was 83.2 µM (inactive); in the assay with U-251, 72.8 µM (inactive).
Consider `CC(=O)O/N=C(Cl)/C(Cl)=N/OC(C)=O`, for which the GI50 was > 100 µM (inactive) in the assay on CCRF-CEM; > 100 µM (inactive) with HCT-116; > 100 µM in the assay on HCT-15; > 100 µM (inactive) in the assay with HOP-62; > 100 µM (inactive) in the assay on HOP-92; > 100 µM (inactive) in the assay with LXFL 529. Besides, the GI50 in the assay with Malme-3M, in the assay with NCI-H23, in the assay on NCI-H522, in the assay on OVCAR-4, in the assay on RXF 393 and in the assay with SK-MEL-2 was > 100 µM (inactive) each time. Further, the GI50 in the assay with SNB-75, in the assay on SR, in the assay on SW-620, in the assay on TK-10 and in the assay on U-251 was > 100 µM (inactive) throughout.
`CCOC(=O)C(CC(C)C)NC(=O)C(N)Cc1ccc(N(CCCl)CCCl)cc1` (configuration not stated): the GI50 with CCRF-CEM is 0.104 µM (active); in the assay with HCT-116 it was 3.12 µM (inactive); with HCT-15, 2.38 µM; with HOP-62 it was 4.86 µM (inactive); in the assay with HOP-92, 3.18 µM (inactive); in the assay on LXFL 529, 2.8 µM (inactive). The GI50 in the assay on Malme-3M was 1.75 µM (inactive); in the assay with NCI-H23, 1.57 µM (inactive); with NCI-H522 it was 2.66 µM (inactive); in the assay with OVCAR-3 it was 1.95 µM (inactive); in the assay with OVCAR-4 it was 1.6 µM (inactive); in the assay with RXF 393, 2.01 µM (inactive). Also, the GI50 with SK-MEL-2 is 4.83 µM (inactive); in the assay on SK-MEL-5, 5.62 µM (inactive); in the assay with SNB-75 it was 3.94 µM (inactive); in the assay on SR it was 0.0232 µM (active); in the assay with SW-620 it was 6.62 µM (inactive); in the assay on TK-10 it was 9.71 µM (inactive). For the same compound, the GI50 in the assay with U-251 was 3.79 µM (inactive).
For `CCSc1nc(COC(=O)NC)c(COC(=O)NC)n1C`, the GI50 is 54 µM (inactive) in the assay on CCRF-CEM; > 100 µM (inactive) with HCT-116; > 100 µM in the assay with HCT-15; 99.3 µM (inactive) with HOP-62; > 80.5 µM (inactive) with HOP-92; > 37.2 µM (inactive) in the assay with LXFL 529. The GI50 with Malme-3M was > 100 µM (inactive); with NCI-H23 it was 99.5 µM (inactive); with NCI-H522, 40.6 µM (inactive); in the assay with NCI/ADR-RES, > 100 µM (inactive); with OVCAR-3 it was > 100 µM (inactive); in the assay on OVCAR-4, > 75.7 µM (inactive). For the same compound, the GI50 in the assay on RXF 393 is 42.8 µM (inactive); in the assay on SK-MEL-2 it was > 89.7 µM (inactive); in the assay on SK-MEL-5, > 100 µM (inactive); in the assay on SNB-75, > 100 µM (inactive); with SR, 51.3 µM (inactive); in the assay with SW-620, > 100 µM (inactive). Also, the values for the GI50 with TK-10 and with U-251 were > 100 µM (inactive) and > 84.9 µM (inactive), respectively.
